Data on 9 compounds can be found in patent US11091479B2, “Triazolopyridin-3-ones or their salts and pharmaceutical compositions comprising the same” (YUHAN CORPORATION, priority 2018, dated 2021).

What is called IC50 is the point on the concentration scale where inhibition reaches its midpoint.

The structures appear in SMILES notation. Structures can show the parent of a compound that is named as a salt.

Format in all cases: biochemical
In one assay the target is T1, recombinant human VAP-1 (Homo sapiens, UniProt Q16853).
T1 construct: purchased R&D systems
T1 sequence (Q16853 1-763): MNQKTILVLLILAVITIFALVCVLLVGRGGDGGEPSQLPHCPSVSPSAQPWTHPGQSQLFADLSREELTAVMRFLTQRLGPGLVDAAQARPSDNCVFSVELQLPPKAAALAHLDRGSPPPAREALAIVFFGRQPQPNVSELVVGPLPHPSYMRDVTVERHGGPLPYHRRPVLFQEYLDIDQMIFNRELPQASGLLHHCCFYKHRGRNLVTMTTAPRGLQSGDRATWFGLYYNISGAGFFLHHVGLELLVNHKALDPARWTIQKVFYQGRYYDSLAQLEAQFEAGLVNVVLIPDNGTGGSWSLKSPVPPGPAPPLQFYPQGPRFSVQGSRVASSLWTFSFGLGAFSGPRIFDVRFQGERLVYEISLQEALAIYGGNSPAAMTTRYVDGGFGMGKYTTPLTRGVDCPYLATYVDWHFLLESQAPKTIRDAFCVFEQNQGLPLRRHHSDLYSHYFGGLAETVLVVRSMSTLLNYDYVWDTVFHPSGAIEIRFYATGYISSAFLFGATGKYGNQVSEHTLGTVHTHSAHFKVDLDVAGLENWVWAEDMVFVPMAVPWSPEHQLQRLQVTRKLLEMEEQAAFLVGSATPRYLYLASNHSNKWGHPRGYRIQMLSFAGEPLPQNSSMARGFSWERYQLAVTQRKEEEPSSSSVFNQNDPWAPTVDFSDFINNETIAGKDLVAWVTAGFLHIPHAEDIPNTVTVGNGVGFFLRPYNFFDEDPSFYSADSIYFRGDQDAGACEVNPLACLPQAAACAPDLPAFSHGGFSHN
The assay is described as follows: Activity on recombinant human VAP-1, HRP-coupled Amplex Red hydrogen peroxide assay, benzylamine substrate. To be noted: 30 min incubation at 37° C., 1 mM benzylamine, read-out: Inhibitory Activity (IC50, nM) human VAP-1. Here is the method: (§1) The compounds according to the present technology were evaluated in terms of activity on recombinant human VAP-1 (R&D systems) by measuring the level of hydrogen peroxide in horseradish peroxidase (HRP)-coupled reaction using Amplex Red Hydrogen Peroxide Assay Kit (Molecular Probes, Invitrogen, USA). The experiment was carried out at room temperature using benzylamine as a substrate. In the HRP-coupled reaction, hydrogen peroxide oxidation of 10-acetyl-3,7-dihydroxyphenoxazine (Amplex Red reagent) produces resorufin, which is a highly fluorescent compound. Briefly, the test compound was dissolved in dimethyl sulfoxide (DMSO) at a concentration of 20 mM. The dose-response assessment was made by 1:3 serial dilution in DMSO, thereby creating a 8 point curve. The concentration of the upper part was controlled according to the efficacy of the compounds, followed by dilution with a reaction buffer solution to obtain a final DMSO concentration of less than 1%. To each well of a 96 black well plate, human VAP-1 purified in 50 mM sodium phosphate buffer solution (pH7.4) was added. The test compounds dissolved in DMSO were incubated with the human VAP-1 enzymes at 37° C. for 30 minutes. After 30-minute incubation, each well was added with a reaction mixture containing 200 uM Amplex Red reagent prepared from 50 mM sodium phosphate buffer solution (pH 7.4), 1 mM benzylamine, and 1 U/mL HRP. Fluorescence intensity was measured at several time points during 1-2 hours using a microplate reader (Flexstation3, Molecular Devices) under the wavelength condition exciting at 544 nm and reading the emission at 590 nm. The inhibitory effect of the compounds was measured as a decrease (%) in the signal rate as compared to the control group without any inhibitor (only diluted DMSO). Data was fixed to a logistic model with four variables and IC50 value was calculated using GraphPad Prism program.

In assay [1] the target is T2, recombinant human MAO-A (monoamine oxidase-A) (Homo sapiens, UniProt P21397).
T2 construct: purchased Sigma-Aldrich
T2 sequence (P21397 1-527): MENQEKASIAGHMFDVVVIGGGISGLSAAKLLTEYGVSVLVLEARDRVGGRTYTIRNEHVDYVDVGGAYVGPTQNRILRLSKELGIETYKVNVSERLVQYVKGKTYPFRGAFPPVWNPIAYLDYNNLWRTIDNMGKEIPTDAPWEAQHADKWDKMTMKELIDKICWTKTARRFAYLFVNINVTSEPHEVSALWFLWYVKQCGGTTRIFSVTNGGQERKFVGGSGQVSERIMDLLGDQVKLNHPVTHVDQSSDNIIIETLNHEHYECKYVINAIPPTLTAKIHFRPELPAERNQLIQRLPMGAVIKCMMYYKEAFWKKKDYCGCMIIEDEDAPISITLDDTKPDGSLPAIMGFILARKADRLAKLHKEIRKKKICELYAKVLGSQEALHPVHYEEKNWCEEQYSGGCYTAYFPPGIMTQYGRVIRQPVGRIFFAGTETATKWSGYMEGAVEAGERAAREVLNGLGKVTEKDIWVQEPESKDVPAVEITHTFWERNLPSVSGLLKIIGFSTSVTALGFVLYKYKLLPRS
The assay is described as follows: Activity on recombinant human MAO-A, method similar to VAP-1 assay, 0.5 mM tyramine substrate. The settings on record: read-out: Inhibitory Activity (IC50, nM) MAO-A. On the procedure: as §1
(§2) In addition, the compounds according to the present technology were evaluated in terms of activity on a recombinant human MAO-A (monoamine oxidase-A, Sigma-Aldrich) and a recombinant human MAO-B(monoamine oxidase-B, Sigma-Aldrich) by using as substrates, 0.5 mM tyramine and 1 mM benzylamine, respectively, with a method similar to the activity evaluation method for recombinant human VAP-1. The compounds according to the present technology were also evaluated in terms of activity on a recombinant human DAO (diamine oxidase, R&D systems) by using as a substrate 1 mM putrescine with a method similar to the activity evaluation method for recombinant human VAP-1.

The target of assay [2] is T3, recombinant human MAO-B (monoamine oxidase-B) (Homo sapiens, UniProt P27338).
T3 construct: purchased Sigma-Aldrich
T3 sequence (P27338 1-520): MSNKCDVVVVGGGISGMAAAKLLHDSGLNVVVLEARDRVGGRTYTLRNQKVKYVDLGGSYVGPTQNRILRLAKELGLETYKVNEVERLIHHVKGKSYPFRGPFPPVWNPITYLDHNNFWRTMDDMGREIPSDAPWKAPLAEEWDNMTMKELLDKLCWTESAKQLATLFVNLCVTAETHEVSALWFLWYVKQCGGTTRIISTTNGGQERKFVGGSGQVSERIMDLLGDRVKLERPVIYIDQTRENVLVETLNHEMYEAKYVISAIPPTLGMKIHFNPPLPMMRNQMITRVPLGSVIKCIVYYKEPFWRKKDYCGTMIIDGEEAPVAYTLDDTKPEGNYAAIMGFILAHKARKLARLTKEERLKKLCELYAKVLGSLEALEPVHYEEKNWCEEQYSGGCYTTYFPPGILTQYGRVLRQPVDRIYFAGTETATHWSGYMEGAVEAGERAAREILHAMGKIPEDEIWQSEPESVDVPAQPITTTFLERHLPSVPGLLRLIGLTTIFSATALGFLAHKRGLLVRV
The assay is described as follows: Activity on recombinant human MAO-B, method similar to VAP-1 assay, 1 mM benzylamine substrate. To be noted: read-out: Inhibitory Activity (IC50, nM) MAO-B. On the procedure:
as §1, §2

For assay [3], the target named is T4, recombinant human DAO (diamine oxidase) (Homo sapiens, UniProt P19801).
T4 construct: purchased R&D systems
T4 sequence (P19801 20-751): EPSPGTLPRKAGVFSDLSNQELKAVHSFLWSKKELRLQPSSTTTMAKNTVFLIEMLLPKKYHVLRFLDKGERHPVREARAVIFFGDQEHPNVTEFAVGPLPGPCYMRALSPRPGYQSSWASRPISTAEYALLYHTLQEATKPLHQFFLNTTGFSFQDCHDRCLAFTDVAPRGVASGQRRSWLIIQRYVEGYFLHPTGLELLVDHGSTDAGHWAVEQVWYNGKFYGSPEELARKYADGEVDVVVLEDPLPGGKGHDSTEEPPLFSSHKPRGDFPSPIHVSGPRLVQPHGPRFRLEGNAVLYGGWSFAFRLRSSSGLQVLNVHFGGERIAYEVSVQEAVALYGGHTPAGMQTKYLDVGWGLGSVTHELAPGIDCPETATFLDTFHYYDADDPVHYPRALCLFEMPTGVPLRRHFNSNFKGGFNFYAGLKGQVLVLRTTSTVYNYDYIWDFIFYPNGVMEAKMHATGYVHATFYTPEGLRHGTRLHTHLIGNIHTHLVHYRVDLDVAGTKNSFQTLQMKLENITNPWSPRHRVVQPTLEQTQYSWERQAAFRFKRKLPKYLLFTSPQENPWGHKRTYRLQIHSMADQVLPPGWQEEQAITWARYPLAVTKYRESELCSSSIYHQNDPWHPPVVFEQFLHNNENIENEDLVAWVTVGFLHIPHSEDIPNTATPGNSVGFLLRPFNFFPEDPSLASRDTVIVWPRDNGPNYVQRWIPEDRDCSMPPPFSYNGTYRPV
The assay is described as follows: Activity on recombinant human DAO, method similar to VAP-1 assay, 1 mM putrescine substrate. To be noted: read-out: Inhibitory Activity (IC50, nM) DAO. Here is the method: as §1, §2

Regarding `NC/C(=C\F)Cn1nc2ccc(-c3ccc(N4CCOCC4)nc3)cn2c1=O` [Example 10, 2-[(2E)-2-(aminomethyl)-3-fluoroprop-2-en-1-yl]-6-[6-(morpholin-4-yl)pyridin-3-yl][1,2,4]triazolo[4,3-a]pyridin-3(2H)-one trifluoroacetate], the IC50 on recombinant human VAP-1 is 6.6 nM; in assay [1] it was over 100000 nM; in assay [2] it was 64 nM; in assay [3], under 100 nM.
Consider `NCC(Cn1nc2cc(C#Cc3ccc4c(c3)CCC(=O)N4)ccn2c1=O)=C(F)F` [Example 62, 6-[2-[2-[2-(aminomethyl)-3,3-difluoro-allyl]-3-oxo-[1,2,4]triazolo[4,3-a]pyridin-7-yl]ethynyl]-3,4-dihydro-1H-quinolin-2-one trifluoroacetate], for which the IC50 at recombinant human VAP-1 is 0.2 nM; in assay [1], over 100000 nM; in assay [2], 14000 nM; in assay [3], 150 nM.
With `NCC(Cn1nc2cc(-c3ccc(N4CCNCC4)cc3)ccn2c1=O)=C(F)F` [Example 49, 2-[2-(aminomethyl)-3,3-difluoro-allyl]-7-(4-piperazin-1-ylphenyl)-[1,2,4]triazolo[4,3-a]pyridin-3-one ditrifluoroacetate], the IC50 is 1.6 nM on recombinant human VAP-1, over 100000 nM in assay [1], 53000 nM in assay [2] and 390 nM in assay [3].
The matching figures for `NC/C(=C\F)Cn1nc2cc(-c3ccc(C(=O)N4CCOCC4)cc3)ccn2c1=O` [Example 24, 2-[(2E)-2-(aminomethyl)-3-fluoroprop-2-en-1-yl]-7-[4-(morpholin-4-ylcarbonyl)phenyl][1,2,4]triazolo[4,3-a]pyridin-3(2H)-one hydrochloride]: 0.6 nM, over 100000 nM, over 10000 nM and 14 nM.
Consider `NC/C(=C\F)Cn1nc2ccc(-c3ccc4nonc4c3)cn2c1=O` [Example 16, 2-[(2E)-2-(aminomethyl)-3-fluoroprop-2-en-1-yl]-6-(2,1,3-benzoxadiazol-5-yl)[1,2,4]triazolo[4,3-a]pyridin-3(2H)-one trifluoroacetate], for which the IC50 at recombinant human VAP-1 was 4.5 nM; in assay [1] it was 10200 nM; in assay [2], 52 nM; in assay [3], under 100 nM.
For `CS(=O)(=O)c1cccc(-c2ccn3c(=O)n(C/C(=C/F)CN)nc3c2)c1` [Example 22, 2-[(2E)-2-(aminomethyl)-3-fluoroprop-2-en-1-yl]-7-[3-(methylsulfonyl)phenyl][1,2,4]triazolo[4,3-a]pyridin-3(2H)-one hydrochloride] the same measures were 0.7 nM, over 100000 nM, 180 nM and 12 nM.
The matching figures for `NC/C(=C\F)Cn1nc2cc(-c3ccc(-c4cnon4)cc3)ccn2c1=O` [Example 27, 2-[(2E)-2-(aminomethyl)-3-fluoroprop-2-en-1-yl]-7-[4-(1,2,5-oxadiazol-3-yl)phenyl][1,2,4]triazolo[4,3-a]pyridin-3(2H)-one hydrochloride]: 0.6 nM, 1450 nM, 67 nM and 1.8 nM.
Regarding `NCC(Cn1nc2cc(C#Cc3cnc4c(c3)OCCN4)ccn2c1=O)=C(F)F` [Example 61, 2-[2-(aminomethyl)-3,3-difluoro-allyl]-7-[2-(3,4-dihydro-2H-pyrido[3,2-b][1,4]oxazin-7-yl)ethynyl]-[1,2,4]triazolo[4,3-a]pyridin-3-one ditrifluoroacetate], the IC50 at recombinant human VAP-1 was 0.6 nM; in assay [1], over 100000 nM; in assay [2] it was 37000 nM; in assay [3], 220 nM.
Turning to `NC/C(=C\F)Cn1nc2cc(-c3cccc(-c4cc[nH]n4)c3)ccn2c1=O` [Example 26, 2-[(2E)-2-(aminomethyl)-3-fluoroprop-2-en-1-yl]-7-[3-(1H-pyrazol-3-yl)phenyl][1,2,4]triazolo[4,3-a]pyridin-3(2H)-one hydrochloride], the IC50 at recombinant human VAP-1 was 0.2 nM; in assay [1], over 100000 nM; in assay [2] it was under 10 nM; in assay [3], 1.9 nM.
